Consider 31 molecules from patent publication US9434695B2, “Nitrogenous heterocyclic derivatives and their application in drugs” (SUNSHINE LAKE PHARMA CO., LTD., priority 2012, dated 2016).

One may read the IC50 as the concentration needed to halve the response being measured.

Each structure is given as a SMILES string.

For this experiment, the system named is BHK-21 cells. The experiment can be described thus: inhibition of BHK-21 cell proliferation (CCK-8, optical density at 450 nm). The experiment is classed as cell-based. The note with it: for IC50: Mesocricetus auratus, inhibition ratio of cell proliferation, 48 hours after dosing, CCK-8; for The ratio with PFD (multiple): ratio of Pirfenidone IC50 from the compound IC50, the bigger the multiple, the better the vitro inhibitory activity, 48 hours. The protocol:
Taking BHK-21 cells which in exponential growth phase, collecting and counting the cells which had digestive transfer culture after fusion growth 85-95%, adjusting the cell density to 2×10^4 cells per milliliter, seeding the cells into 96-well plates, 100 μl/well, the cells were incubated in a 5% CO2 incubator at 37° C.
The upper clear liquid of the 96-well plates was removed after the cells adhering to the wall 24 hours. The above compounds were confected into solutions of different concentration and the solutions were added to the wells, 100 μl/well. Each concentration solution in 3 replicates, the cells were subcultured 48 hours after dosing.
3. Testing the Optical Density
10 μl of CCK-8 solution was added to each well 48 hours after dosing, and incubated for 2 hours. The optical density (A) of each well was determined by a microplate reader at 450 nm wavelength. Calculating the inhibition ratio of cell proliferation of each compound is based on A and the inhibition ratio of cell proliferation (inhibition ratio, IR)=(1−value of experimental group (Ai)/value of control group (Ao))×100% and the IC50 of each compound at 48 hours was calculated by data processing software.

As to `Cc1ccc(=O)n(-c2ccc(CN3CCOCC3)c(F)c2)c1` [Example 1, 1-(3-fluoro-4-(morpholinomethyl)phenyl)-5-methylpyridin-2(1H)-one], the IC50 was found to be 400 µM and the “The ratio with PFD (multiple)” value is 16.6 multiple.

Turning to `Cc1cc(=O)n(-c2ccc(N3CCOCC3)c(F)c2)c(C)n1` [Example 7, 3-(3-fluoro-4-morpholinophenyl)-2,6-dimethylpyrimidin-4(3H)-one], the IC50 amounted to 740 µM and the “The ratio with PFD (multiple)” value is recorded as 1.35 multiple.

Regarding `CCN(CC)c1ccc(-n2c(C)nc(C)cc2=O)cc1F` [Example 8, 3-(4-(diethylamino)-3-fluorophenyl)-2,6-dimethylpyrimidin-4(3H)-one], the IC50 is 1660 µM and the “The ratio with PFD (multiple)” value is 2.31 multiple.

`Cc1cc(=O)n(-c2ccc(N3CCS(=O)(=O)CC3)c(F)c2)c(C)n1` [Example 10, 3-(4-(1,1-dioxidothiomorpholino)-3-fluorophenyl)-2,6-dimethylpyrimidin-4(3H)-one]: the IC50 turned out to be 5550 µM and the “The ratio with PFD (multiple)” value was determined as 0.72 multiple.

For the molecule `Cc1cc(=O)n(-c2ccc(N3CCCCC3)c(F)c2)c(C)n1` [Example 11, 3-(3-fluoro-4-(piperidin-1-yl)phenyl)-2,6-dimethylpyrimidin-4(3H)-one], the IC50 stood at 1320 µM and the “The ratio with PFD (multiple)” value is recorded as 2.91 multiple.

As to `Cc1cc(=O)n(-c2ccc(N3CCN(C)CC3)c(F)c2)c(C)n1` [Example 12, 3-(3-fluoro-4-(4-methylpiperazin-1-yl)phenyl)-2,6-dimethylpyrimidin-4(3H)-one], the concentration for half-maximal inhibition (IC50) came to 1400 µM and the “The ratio with PFD (multiple)” value was determined as 2.74 multiple.

For the molecule `Cc1cc(=O)n(-c2cc(F)c3c(c2)OCC2CCCN32)c(C)n1` (centres unmarked) [Example 13, 3-(9-fluoro-2,3,3a,4-tetrahydro-1H-benzo[b]pyrrolo[1,2-d][1,4]oxazin-7-yl)-2,6-dimethylpyrimidin-4(3H)-one], the IC50 worked out at 1980 µM and the “The ratio with PFD (multiple)” value is listed as 2.01 multiple.

Take `Cc1cc(=O)n(-c2cnc(-c3ccc(N4CCOCC4)cc3)s2)c(C)n1` [Example 15, 2,6-dimethyl-3-(2-(4-morpholinophenyl)thiazol-5-yl)pyrimidin-4(3H)-one]: the half-maximal inhibitory concentration (IC50) is 970 µM and the “The ratio with PFD (multiple)” value was 3.97 multiple.

Regarding `Cc1cc(=O)n(-c2ccc(-n3cccc3)c(F)c2)c(C)n1` [Example 18, 3-(3-fluoro-4-(1H-pyrrol-1-yl)phenyl)-2,6-dimethylpyrimidin-4(3H)-one], the IC50 was 560 µM and the “The ratio with PFD (multiple)” value is on record as 8.10 multiple.

`Cc1cc(=O)n(-c2ccc(-n3cccn3)c(F)c2)c(C)n1` [Example 19, 3-(3-fluoro-4-(1H-pyrazol-1-yl)phenyl)-2,6-dimethylpyrimidin-4(3H)-one]: the IC50 amounted to 1190 µM and the “The ratio with PFD (multiple)” value was found to be 3.21 multiple.

Turning to `Cc1cc(=O)n(-c2ccc(N3CCOCC3)c(F)c2)c(COc2cccc(F)c2)n1` [Example 20, 3-(3-fluoro-4-morpholinophenyl)-2-((3-fluorophenoxy)methyl)-6-methylpyrimidin-4(3H)-one], the IC50 is 40 µM and the “The ratio with PFD (multiple)” value is listed as 95.70 multiple.

Consider `Cc1cc(=O)n(-c2ccc(N3CCCC3)c(F)c2)c(C)n1` [Example 21, 3-(3-fluoro-4-(pyrrolidin-1-yl)phenyl)-2,6-dimethylpyrimidin-4(3H)-one], for which the IC50 is 1300 µM and the “The ratio with PFD (multiple)” value was found to be 5.57 multiple.

On to `CCCCN(CCCC)c1ccc(-n2c(C)nc(C)cc2=O)cc1F` [Example 22, 3-(4-(di-n-butylamino)-3-fluorophenyl)-2,6-dimethylpyrimidin-4(3H)-one], for which the IC50 amounted to 190 µM and the “The ratio with PFD (multiple)” value is 39.47 multiple.

As to `Cc1cc(=O)n(-c2ccc(N(CC(C)C)CC(C)C)c(F)c2)c(C)n1` [Example 23, 3-(4-(diisobutylamino)-3-fluorophenyl)-2,6-dimethylpyrimidin-4(3H)-one], the 50% inhibitory concentration (IC50) was determined as 110 µM and the “The ratio with PFD (multiple)” value is reported as 30.31 multiple.

As to `CCCCCCN(CCCCCC)c1ccc(-n2c(C)nc(C)cc2=O)cc1F` [Example 24, 3-(4-(di-n-hexylamino)-3-fluorophenyl)-2,6-dimethylpyrimidin-4(3H)-one], the concentration for half-maximal inhibition (IC50) amounted to 40 µM and the “The ratio with PFD (multiple)” value is given as 60.63 multiple.

For the molecule `Cc1cc(=O)n(-c2ccc(N(C)CCN3CCOCC3)c(F)c2)c(C)n1` [Example 28, 3-(3-fluoro-4-(methyl(2-morpholinoethyl)amino)phenyl)-2,6-dimethylpyrimidin-4(3H)-one], the IC50 stood at 4990 µM and the “The ratio with PFD (multiple)” value is 1.60 multiple.

For the molecule `Cc1cc(=O)n(-c2ccc(NCCN3CCOCC3)cc2Cl)c(C)n1` [Example 29, 3-(2-chloro-4-((2-morpholinoethyl)amino)phenyl)-2,6-dimethylpyrimidin-4(3H)-one], the IC50 was 1050 µM and the “The ratio with PFD (multiple)” value amounted to 6.82 multiple.

As to `Cc1cc(=O)n(-c2ccc(NCCCN3CCOCC3)c(F)c2)c(C)n1` [Example 30, 3-(3-fluoro-4-((3-morpholinopropyl)amino)phenyl)-2,6-dimethylpyrimidin-4(3H)-one], the IC50 was 540 µM and the “The ratio with PFD (multiple)” value was 13.18 multiple.

`Cc1cc(=O)n(-c2ccc(NCCCCN3CCOCC3)c(F)c2)c(C)n1` [Example 31, 3-(3-fluoro-4-((4-morpholinobutyl)amino)phenyl)-2,6-dimethylpyrimidin-4(3H)-one]: the IC50 was found to be 2220 µM and the “The ratio with PFD (multiple)” value is reported as 3.50 multiple.

With `CCCOCCN(CCOCCC)c1ccc(-n2c(C)nc(C)cc2=O)cc1F` [Example 32, 3-(4-(bis(2-propoxyethyl)amino)-3-fluorophenyl)-2,6-dimethylpyrimidin-4(3H)-one], the concentration for half-maximal inhibition (IC50) worked out at 810 µM and the “The ratio with PFD (multiple)” value is on record as 9.60 multiple.

Regarding `CCCCCCNc1ccc(-n2c(C)nc(C)cc2=O)cc1F` [Example 33, 3-(3-fluoro-4-(hexylamino)phenyl)-2,6-dimethylpyrimidin-4(3H)-one], the IC50 amounted to 300 µM and the “The ratio with PFD (multiple)” value stood at 25.70 multiple.

As for `CCOCCCNc1ccc(-n2c(C)nc(C)cc2=O)cc1F` [Example 34, 3-(4-((3-ethoxypropyl)amino)-3-fluorophenyl)-2,6-dimethylpyrimidin-4(3H)-one], the IC50 is 2490 µM and the “The ratio with PFD (multiple)” value turned out to be 3.10 multiple.

In the case of `Cc1cc(=O)n(-c2ccc(NCCCn3ccnc3)c(F)c2)c(C)n1` [Example 35, 3-(4-((3-(1H-imidazol-1-yl)propyl)amino)-3-fluorophenyl)-2,6-dimethylpyrimidin-4(3H)-one], the IC50 stood at 3010 µM and the “The ratio with PFD (multiple)” value came out at 2.60 multiple.

Turning to `Cc1cc(=O)n(-c2ccc(NCCN3CCCCC3)c(F)c2)c(C)n1` [Example 36, 3-(3-fluoro-4-((2-(piperidin-1-yl)ethyl)amino)phenyl)-2,6-dimethylpyrimidin-4(3H)-one], the IC50 worked out at 2700 µM and the “The ratio with PFD (multiple)” value was 2.90 multiple.

Turning to `Cc1cc(=O)n(-c2ccc(NCCCn3cnnn3)c(F)c2)c(C)n1` [Example 37, 3-(4-((3-(1H-tetrazol-1-yl)propyl)amino)-3-fluorophenyl)-2,6-dimethylpyrimidin-4(3H)-one], the IC50 came to 4310 µM and the “The ratio with PFD (multiple)” value is 1.80 multiple.

In the case of `Cc1cc(=O)n(-c2ccc(NCCc3cc4ccccc4[nH]3)c(F)c2)c(C)n1` [Example 38, 3-(4-((2-(1H-indol-2-yl)ethyl)amino)-3-fluorophenyl)-2,6-dimethylpyrimidin-4(3H)-one], the IC50 amounted to 490 µM and the “The ratio with PFD (multiple)” value was determined as 15.80 multiple.

In the case of `CCCCCCN(CCCCCC)c1ccc(-n2c(C)nc(C)cc2=O)cc1Cl` [Example 40, 3-(3-chloro-4-(dihexylamino)phenyl)-2,6-dimethylpyrimidin-4(3H)-one], the IC50 stood at 60 µM and the “The ratio with PFD (multiple)” value turned out to be 127.50 multiple.

On to `CCCCCCN(CCCCCC)c1ccc(-n2c(C)nc(C)cc2=O)cc1Br` [Example 41, 3-(3-bromo-4-(dihexylamino)phenyl)-2,6-dimethylpyrimidin-4(3H)-one], for which the concentration for half-maximal inhibition (IC50) came to 60 µM and the “The ratio with PFD (multiple)” value came out at 32.65 multiple.

For the molecule `CCCCCCN(CCCCCC)c1ccc(-n2c(C)nc(C)cc2=O)cc1C#N` [Example 42, 2-(dihexylamino)-5-(2,4-dimethyl-6-oxopyrimidin-1(6H)-yl)benzonitrile], the IC50 was found to be 70 µM and the “The ratio with PFD (multiple)” value was found to be 27.39 multiple.

For `Cc1cc(=O)n(-c2ccc(NC(C)(C)Cc3ccc4ccccc4c3)c(Cl)c2)c(C)n1` [Example 45, 3-(3-chloro-4-((2-methyl-1-(naphthalen-2-yl)propan-2-yl)amino)phenyl)-2,6-dimethylpyrimidin-4(3H)-one], the IC50 amounted to 70 µM and the “The ratio with PFD (multiple)” value is 42.60 multiple.

Take `Cc1cc(=O)n(-c2ccc(N3CCOCC3)c(Cl)c2)c(C)n1` [Example 46, 3-(3-chloro-4-morpholinophenyl)-2,6-dimethylpyrimidin-4(3H)-one]: the IC50 is 1070 µM and the “The ratio with PFD (multiple)” value came out at 2.80 multiple.
